Results published in patent US20100234306A1, “USE OF A PEPTIDE AS A THERAPEUTIC AGENT” (priority 2007, published 2010).
Where no end group is shown, it is not given here.

Experiments:
CEM-SS cells = assay: Cytotoxicity (MTS cell viability) in the HIV-1 assay; conditions: MTS, peptide 10 micrograms per ml
in vitro = conditions: human
[1] = Cytotoxicity testing in MRC-5 cells (CellTiter 96); type: cell-based; conditions: human, MRC-5 cells (embryonal lung fibroblasts), 6 days incubation, read-out: % Cell viability
Protocol: For cytotxicity testing, MRC-5 cells were seeded at 2,500 cells/well in 96 well plates using growth medium. […] The following day, peptide was added and tested in duplicates. After a 6 days incubation period, cell viability was measured using CellTiter 96 Solution (Promega). Plates were incubated for additional 4 hours at 37° C.

MRSA = conditions: Mueller-Hinton Broth, read visually, peptide 10 micrograms per ml
[2] = Cytotoxicity (MTS cell viability) in the HIV-1 assay; conditions: human, CEM-SS cells
Streptococcus pneumoniae = Streptococcus pneumoniae growth inhibition assay; type: cell-based; conditions: Mueller-Hinton Broth, read visually, peptide 10 micrograms per ml
Pseudomonas aeruginosa = Pseudomonas aeruginosa growth inhibition assay; type: cell-based; conditions: Mueller-Hinton Broth, read visually, peptide 10 micrograms per ml
HIV-1IIIB = assay: HIV-1 antiviral CPE assay in CEM-SS cells (MTS); conditions: 6 days post-infection, peptide 10 micrograms per ml

Molecule	% Cell viability (CEM-SS cells) [%]	viability at 144 h, 10 micrograms per ml (in vitro) [%]	viability at 144 h [1] [%]	% inhibition (MRSA) [%]	viability at 10 micrograms per ml [2] [%]	% inhibition (Streptococcus pneumoniae) [%]	% inhibition (Pseudomonas aeruginosa) [%]	% CPE reduction in HIV-1 infected CEM-SS cells (HIV-1IIIB) [%]
CC(C)(C)NC(=O)[C@@H]1CN(Cc2cccnc2)CCN1C[C@@H](O)C[C@@H](Cc1ccccc1)C(=O)N[C@H]1c2ccccc2C[C@H]1O [Indinavir]	93	–	–	–	–	–	–	–
MQMKKVLDS-OH [AIP-1]	–	100	100	0.0	100	0.0	0.0	–
Cc1cn([C@H]2C[C@H](N=[N+]=[N-])[C@@H](CO)O2)c(=O)[nH]c1=O [AZT]	97	–	–	–	–	–	–	99
